These results are taken from ChEMBL document CHEMBL3098100, “Synthesis, characterization and anticancer screening of some novel piperonyl-tetrazole derivatives” (2014).

Each structure is given as a SMILES string. Active and inactive are the calls of the source. The calls are words filed in the database; no cut-off is given here.

The subject of one assay is HepG2. Description: Cytotoxicity against human HepG2 cells assessed as growth inhibition at 10^-5 M after 48 hrs by MTT assay. It is filed as functional. The conditions noted are these: HepG2, 48 h, read-out: GI. (Tetrazolium dyes change colour on reduction, which living cells bring about.)
Assay [1] relates to MCF7. Description: Decrease of p53 and KRT19 mRNA expression in human ER positive MCF7 cells by RT-PCR analysis relative to control. In kind it is functional, cell-based.
Assay [2] concerns MCF7. Description: Decrease of BRAC1 mRNA expression in human ER positive MCF7 cells by RT-PCR analysis relative to control. It is filed as functional, cell-based.
Assay [3] deals with MDA-MB-231. Description: Decrease of BRAC1 mRNA expression in human ER negative MDA-MB-231 cells by RT-PCR analysis relative to control. It is filed as functional.
Assay [4] relates to MCF7. Description: Increase of CD44 mRNA expression in human ER positive MCF7 cells by RT-PCR analysis relative to control. In kind it is functional.
The subject of assay [5] is MDA-MB-231. Description: Decrease of CD44 mRNA expression in human ER negative MDA-MB-231 cells by RT-PCR analysis relative to control. It is filed as functional, cell-based.
The test system of assay [6] is MDA-MB-231. Description: Reduction of BAX mRNA expression in human ER negative MDA-MB-231 cells by RT-PCR analysis relative to control. In kind it is functional, cell-based.
Assay [7] deals with MCF7. Description: Reduction of BAX mRNA expression in human ER positive MCF7 cells by RT-PCR analysis relative to control. It is filed as functional.

In the case of `O=C(Cn1nnnc1-c1ccc2c(c1)OCO2)N/N=C/c1ccccc1`, the inhibition of growth at 10 µM with HepG2 was found to be 0%.

As to `CCOc1ccccc1/C=N/NC(=O)Cn1nnnc1-c1ccc2c(c1)OCO2`, the inhibition of growth at 10 µM with HepG2 amounted to 0%.

In the case of `COc1ccc(/C=N/NC(=O)Cn2nnnc2-c2ccc3c(c2)OCO3)cc1`, the inhibition of growth at 10 µM with HepG2 was found to be 0%.

In the case of `COc1ccc(/C=N/NC(=O)Cn2nnnc2-c2ccc3c(c2)OCO3)c(OC)c1`, the inhibition of growth at 10 µM in the assay on HepG2 was determined as 0%. In addition, the result in the assay on MCF7 [1], in the assay on MCF7 [2], with MDA-MB-231 [5] and in the assay with MDA-MB-231 [6] was Active. Further, the “fold change (FC)” value in the assay with MDA-MB-231 [3] is listed as 2; in the assay on MCF7 [4] it was 2; in the assay on MCF7 [7] it was greater than 2.

Turning to `CCc1ccc(/C=N/NC(=O)Cn2nnnc2-c2ccc3c(c2)OCO3)cc1`, in the assay with HepG2, the inhibition of growth at 10 µM was found to be 0%.

Consider `Cc1ccc(/C=N/NC(=O)Cn2nnnc2-c2ccc3c(c2)OCO3)cc1`, for which the inhibition of growth at 10 µM with HepG2 turned out to be 0%.

For the molecule `O=C(Cn1nnnc1-c1ccc2c(c1)OCO2)N/N=C/c1ccc([N+](=O)[O-])cc1`, in the assay on HepG2, the inhibition of growth at 10 µM is 0%. Moreover, the result in the assay with MCF7 [1], in the assay with MCF7 [2], in the assay with MCF7 [4], in the assay on MDA-MB-231 [5] and in the assay on MDA-MB-231 [6] was Active. The “fold change (FC)” value is on record as 2 in the assay with MDA-MB-231 [3] and greater than 2 in the assay with MCF7 [7].

For the molecule `CCOc1ccc(/C=N/NC(=O)Cn2nnnc2-c2ccc3c(c2)OCO3)cc1`, the inhibition of growth at 10 µM in the assay on HepG2 turned out to be 0%.

On to `O=C(Cn1nnnc1-c1ccc2c(c1)OCO2)N/N=C/c1cccs1`, for which the inhibition of growth at 10 µM with HepG2 stood at 0%.

On to `O=C(Cn1nnnc1-c1ccc2c(c1)OCO2)N/N=C/c1ccco1`, for which the inhibition of growth at 10 µM in the assay on HepG2 was 0%.

Take `O=C(Cn1nnnc1-c1ccc2c(c1)OCO2)N/N=C/c1ccccc1[N+](=O)[O-]`: the inhibition of growth at 10 µM in the assay with HepG2 was 0%. For the same molecule, the outcome in the assay on MCF7 [1], in the assay on MCF7 [2], in the assay with MDA-MB-231 [5] and in the assay with MDA-MB-231 [6] was Active. For the same molecule, the “fold change (FC)” value in the assay with MDA-MB-231 [3] is given as 2; with MCF7 [4], 2; in the assay on MCF7 [7] it was greater than 2.

Turning to `O=C(Cn1nnnc1-c1ccc2c(c1)OCO2)N/N=C/c1cccc([N+](=O)[O-])c1`, in the assay with HepG2, the inhibition of growth at 10 µM is 0%. Further, the result in the assay on MCF7 [1], with MCF7 [2], in the assay on MCF7 [4], in the assay on MDA-MB-231 [5] and with MDA-MB-231 [6] was Active. For the same molecule, the “fold change (FC)” value is listed as 2 in the assay on MDA-MB-231 [3] and greater than 2 with MCF7 [7].

Consider `O=C(Cn1nnnc1-c1ccc2c(c1)OCO2)N/N=C/c1ccc(Cl)cc1`, for which the inhibition of growth at 10 µM with HepG2 is 0%.

`O=C(Cn1nnnc1-c1ccc2c(c1)OCO2)N/N=C/c1ccccc1Cl`: the inhibition of growth at 10 µM in the assay with HepG2 worked out at 0%. The outcome with MCF7 [1], with MCF7 [2], in the assay with MCF7 [4], with MDA-MB-231 [5] and with MDA-MB-231 [6] was Active. Also, the “fold change (FC)” value with MDA-MB-231 [3] is 2; with MCF7 [7] it was greater than 2.
